Consider nine compounds from US20230286973A1, “PROTEIN SECRETION INHIBITORS” (KEZAR LIFE SCIENCES, priority 2020, published 2023).

Where two headings read alike, the source gives them in different places. Bounds are passed on as bounds.

The test system of data set [1] is multiple myeloma cell line NCI-H929. Put plainly: H929 Cell Viability Assay. It counts as cell-based, human. The following applies: Homo sapiens, NCI-H929, 48 h, NCI-H929 cells, Celltiter-Glo. On the procedure: The human multiple myeloma cell line NCI-H929 was cultured in Advanced RPMI 1640 media (Gibco®) supplemented with 6% fetal bovine serum, 2 mM Glutamine, and 1× Penicillin/Streptomycin. On the day of assay, cells were resuspended in RPMI 1640 media supplemented with 10% fetal bovine serum, 2 mM Glutamine, and 1× Penicillin/Streptomycin and plated in 384-well tissue culture plates and treated with compound dilutions in DMSO/media. Plates were incubated at 37° C., 5% CO2 for 48 hours. After 48 hours, Celltiter-Glo® (Promega) was added to each well and luciferase signal was quantified using Tecan Infinite M1000 Pro for cell viability determination.
(§1) For chemical structures that include one or more stereoisomers, but are illustrated without indicating stereochemistry, the assay data refers to a mixture of stereoisomers.

The subject of data set [2] is IL-2-FL/Gaussia Luciferase. Put plainly: Dox Induced IL2-FL-Gluc Assay. Particulars: for IC50: 24 hr Dox induction, 293FRT/TO cells, read-out: 24 hr Dox Inducible IL2FLGluc 293FRT/TO: Mean IC50; for 24 hr Dox Inducible IL2FLGluc 293FRT/TO: IL2/PD1: ratio of IL2FLGluc IC50 to PD1ssGluc IC50. It counts as cell-based. The procedure, abridged:
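Reporter is Gaussia luciferase fused to the 3′ end of full-length IL-2 (aa 1-153), expressed from a doxycycline-inducible T-REx construct in stably selected Flp-In 293 cells. Compounds were co-added with doxycycline and incubated at 37° C, 5% CO2.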

In data set [3] the test system is multiple myeloma cell line U266B1. Put plainly: U266 Cell Viability Assay. The data set is classed as cell-based, human. Particulars: Homo sapiens, U-266, 48 h, U266B1 cells, Celltiter-Glo. On the procedure:
The human multiple myeloma cell line U266B1 was cultured in RPMI 1640 media supplemented with 10% fetal bovine serum, 2 mM Glutamine, and 1× Penicillin/Streptomycin. Cells were plated in 384-well tissue culture plates and treated with compound dilutions in DMSO/media. Plates were incubated at 37° C., 5% CO2 for 48 hours. After 48 hours, Celltiter-Glo® (Promega) was added to each well and luciferase signal was quantified using Tecan Infinite M1000 Pro for cell viability determination.
as §1

In data set [4] the test system is PD1-ss+10aa/Gaussia Luciferase. Put plainly: Dox-Induced PD1-ss-Gluc Assay. The following applies: 24 hr Dox induction, 293FRT/TO cells, read-out: 24 hr Dox Inducible PD1ssGluc 293FRT/TO: Mean IC50. The data set is classed as cell-based. The procedure, abridged: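 Doxycycline-induced expression of a PD1-ss+10aa/Gaussia luciferase reporter is measured in stable Flp-In 293 T-REx cells. Compound dilutions containing doxycycline are added one day after plating and incubated at 37 °C, 5% CO2. Values for unassigned stereocentres refer to stereoisomer mixtures.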

Data set [5] has as its system HER3-ss+4aa/Gaussia Luciferase. Put plainly: Dox-Induced Her3-ss-Gluc Assay. It counts as cell-based. The following applies: 24 hr Dox induction; 293FRT/TO cells; read-out: 24 hr Dox Inducible Her3(ss + 4)Gluc 293FRT/TO: Mean IC50.
Text: Flp-In 293 T-REx™ cells were transfected with pcDNA™5/FRT/TO plasmid inserted with cDNA encoding Gaussia Luciferase fused to the 3′ end of cDNA encoding HER3 signal sequence plus 4 amino acids (N-[…]-C) (SEQ ID NO: 2). Transfected cells were selected for resistance to the selectable markers Hygromycin and Blasticidin to create a stable cell line that contained the HER3-ss+4aa/Gaussia Luciferase cDNA insert whose expression was regulated under the T-REx™ system. The day before assay, cells were trypsinized and plated in 384-well tissue culture plates. The next day, compound dilutions in DMSO/media containing doxycycline were added to the wells and incubated at 37° C., 5% CO2.
as §1

The test system of data set [6] is TNFα-FL/Gaussia Luciferase. The data set can be described thus: Dox Induced TNFα-FL-Gluc Assay. The data set is classed as cell-based. Particulars: for IC50: 24 hr Dox induction, 293FRT/TO cells, read-out: 24 hr Dox Inducible TNFaFLGluc 293FRT/TO: Mean IC50; for 24 hr Dox Inducible TNFaFLGluc 293FRT/TO: TNF/PD1: ratio of TNFaFLGluc IC50 to PD1ssGluc IC50.
Text: Flp-In 293 T-REx™ cells were transfected with pcDNA™5/FRT/TO plasmid inserted with cDNA encoding Gaussia Luciferase fused to the 3′ end of cDNA encoding full length TNFα (amino acids 1-233). Transfected cells were selected for resistance to the selectable markers Hygromycin and Blasticidin to create a stable cell line that contained the TNFα-FL/Gaussia Luciferase cDNA insert whose expression was regulated under the T-REx™ system. The day before assay, cells were trypsinized and plated in 384-well tissue culture plates. The next day, compound dilutions in DMSO/media containing doxycycline were added to the wells and incubated at 37° C., 5% CO2.
as §1

A short description of data set [7]: Liver Microsome Stability Assay (mouse). Particulars: mouse liver microsomes, with NADPH, 1.0 uM compound.
Procedure: (§2) Stability of a compound was assessed in the presence of liver microsomes from various sources—mouse, rat, monkey and human liver microsomes. 1.0 uM compound, 0.4% DMSO in 0.1 M Potassium Phosphate with 1.0 mg/mL liver microsomes, were incubated at 37° C. with or without 1 mM NADPH. The samples were quenched at 0, and 30 minutes.
A short description of data set [8]: Liver Microsome Stability Assay (rat). Particulars: rat liver microsomes, with NADPH, 1.0 uM compound.
Procedure: as §2
A short description of data set [9]: Liver Microsome Stability Assay (monkey). Particulars: monkey liver microsomes, with NADPH, 1.0 uM compound.
Procedure: as §2
Data set [10] in a line: Liver Microsome Stability Assay (human). Particulars: human liver microsomes, with NADPH, 1.0 uM compound.
Procedure: as §2
Setting [11] is: '<=>' given where both are I.A.

`CNC(=O)Nc1ccc(N2CCC[C@@H]2c2csc(NC(=O)c3cccn3Cc3ccnc(F)c3)n2)cc1` [Compound A119, (R)-1-((2-fluoropyridin-4-yl)methyl)-N-(4-(1-(4-(3-methylureido)phenyl)pyrrolidin-2-yl)thiazol-2-yl)-1H-pyrrole-2-carboxamide]: the results for the 50% effective concentration (EC50) in data set [1] and in data set [3] were 133 nM and more than 25000 nM, respectively. The IC50 amounted to 7.35 nM in [2], 1.76 nM in data set [4], 6.31 nM in data set [5] and 41.3 nM in data set [6]. The “24 hr Dox Inducible IL2FLGluc 293FRT/TO: IL2/PD1” value in data set [2] stood at 4.2. Moreover, in data set [6], the “24 hr Dox Inducible TNFaFLGluc 293FRT/TO: TNF/PD1” value was 23.5.

For the compound `CCc1cccc2nc(/C=C/c3csc(NC(=O)c4cccn4Cc4ccncc4)n3)cn12` [Compound B79, (E)-N-(4-(2-(5-ethylimidazo[1,2-a]pyridin-2-yl)vinyl)thiazol-2-yl)-1-(pyridin-4-ylmethyl)-1H-pyrrole-2-carboxamide], the 50% effective concentration (EC50) in data set [1] and in [3] was more than 25000 nM in each case. Moreover, the IC50 in data set [2] is 4340 nM; in data set [4], 416 nM; in data set [5], 3580 nM; in data set [6], more than 25000 nM. Also, the “24 hr Dox Inducible IL2FLGluc 293FRT/TO: IL2/PD1” value in [2] is 10. For the same compound, in [6], the “24 hr Dox Inducible TNFaFLGluc 293FRT/TO: TNF/PD1” value is listed as more than 60.1.

`CS(=O)(=O)Nc1ccc(N2CCC[C@@H]2c2csc(NC(=O)c3cccn3Cc3ccnc(F)c3)n2)cc1` [Compound A118, (R)-1-((2-fluoropyridin-4-yl)methyl)-N-(4-(1-(4-(methylsulfonamido)phenyl)pyrrolidin-2-yl)thiazol-2-yl)-1H-pyrrole-2-carboxamide]: the results for the 50% effective concentration (EC50) in data set [1] and in [3] were 1800 nM and more than 25000 nM, respectively. The IC50 in [2] was 129 nM; in data set [4], 103 nM; in [5] it was 135 nM; in data set [6], 888 nM. In addition, in data set [2], the “24 hr Dox Inducible IL2FLGluc 293FRT/TO: IL2/PD1” value stood at 1.2. The “24 hr Dox Inducible TNFaFLGluc 293FRT/TO: TNF/PD1” value in data set [6] is reported as 8.6.

For the compound `C#CCCCCn1cccc1C(=O)Nc1nc([C@H]2CCCN2c2ccccc2)cs1` [Compound C30, (R)-1-(hex-5-yn-1-yl)-N-(4-(1-phenylpyrrolidin-2-yl)thiazol-2-yl)-1H-pyrrole-2-carboxamide], the 50% effective concentration (EC50) in data set [1] and in [3] was more than 25000 nM throughout. Moreover, the IC50 in data set [2] (mean) was 5620 nM; in [4] (mean), 5210 nM. For the same compound, the “24 hr Dox Inducible IL2FLGluc 293FRT/TO: IL2/PD1” value in data set [2] (setting [11]) is given as 1.1. The “Liver Microsome Stability (Multiple Species): Mouse - % Remaining after 30 min w/NADPH” value in [7] stood at 37.6%. Besides, the “Liver Microsome Stability (Multiple Species): Rat - % Remaining after 30 min w/NADPH” value in data set [8] came out at 9.91%. Moreover, the “Liver Microsome Stability (Multiple Species): Monkey - % Remaining after 30 min w/NADPH” value in data set [9] was 5.63%. Moreover, in [10], the “Liver Microsome Stability (Multiple Species): Human - % Remaining after 30 min w/NADPH” value is given as 39.8%.

With `Cc1cn(C(C)C)nc1/C=C/c1csc(NC(=O)c2cccn2Cc2ccncc2)n1` [Compound B80, (E)-N-(4-(2-(1-isopropyl-4-methyl-1H-pyrazol-3-yl)vinyl)thiazol-2-yl)-1-(pyridin-4-ylmethyl)-1H-pyrrole-2-carboxamide], the EC50 turned out to be 16200 nM in data set [1] and 19000 nM in data set [3]. In addition, the IC50 in [2] was 5370 nM; in data set [4], 372 nM; in data set [5] it was 3140 nM; in [6] it was 7270 nM. In data set [2], the “24 hr Dox Inducible IL2FLGluc 293FRT/TO: IL2/PD1” value was 14. For the same compound, the “24 hr Dox Inducible TNFaFLGluc 293FRT/TO: TNF/PD1” value in [6] amounted to 19.5.

Take `O=C(Nc1nc([C@H]2CCCN2c2ccc(-c3ncco3)cc2)cs1)c1cccn1Cc1ccncc1` [Compound A9, (R)-N-(4-(1-(4-(oxazol-2-yl)phenyl)pyrrolidin-2-yl)thiazol-2-yl)-1-(pyridin-4-ylmethyl)-1H-pyrrole-2-carboxamide]: the EC50 in data set [1] is 519 nM; in data set [3], more than 25000 nM. The IC50 in data set [2] came out at 17.1 nM; in data set [4], 7.22 nM. In data set [2], the “24 hr Dox Inducible IL2FLGluc 293FRT/TO: IL2/PD1” value is on record as 2.4. Also, the “Liver Microsome Stability (Multiple Species): Mouse - % Remaining after 30 min w/NADPH” value in data set [7] was found to be 19.8%. Moreover, in [8], the “Liver Microsome Stability (Multiple Species): Rat - % Remaining after 30 min w/NADPH” value is given as 0.8%. Moreover, the “Liver Microsome Stability (Multiple Species): Monkey - % Remaining after 30 min w/NADPH” value in data set [9] is 0.23%. Further, in [10], the “Liver Microsome Stability (Multiple Species): Human - % Remaining after 30 min w/NADPH” value is on record as 0.71%.

For `N#Cc1ccc(Cn2cccc2C(=O)Nc2nc([C@H]3CCCN3c3ccccc3)cs2)cc1` [Compound C50, (R)-1-(4-cyanobenzyl)-N-(4-(1-phenylpyrrolidin-2-yl)thiazol-2-yl)-1H-pyrrole-2-carboxamide], the EC50 in [1] and in data set [3] was more than 25000 nM throughout. For the same compound, the IC50 was 2060 nM in data set [2] (mean) and 3140 nM in data set [4] (mean). The “24 hr Dox Inducible IL2FLGluc 293FRT/TO: IL2/PD1” value in data set [2] (setting [11]) is reported as 0.66. Also, the “Liver Microsome Stability (Multiple Species): Mouse - % Remaining after 30 min w/NADPH” value in data set [7] was 54.5%. For the same compound, the “Liver Microsome Stability (Multiple Species): Rat - % Remaining after 30 min w/NADPH” value in [8] is given as 15.1%. Besides, the “Liver Microsome Stability (Multiple Species): Monkey - % Remaining after 30 min w/NADPH” value in data set [9] is 33.4%. Besides, the “Liver Microsome Stability (Multiple Species): Human - % Remaining after 30 min w/NADPH” value in data set [10] was 33.8%.

For the compound `CCc1cccc2nc(/C=C/c3csc(NC(=O)c4cccn4Cc4ccnc(F)c4)n3)cn12` [Compound B78, (E)-N-(4-(2-(5-ethylimidazo[1,2-a]pyridin-2-yl)vinyl)thiazol-2-yl)-1-((2-fluoropyridin-4-yl)methyl)-1H-pyrrole-2-carboxamide], the EC50 in [1] and in data set [3] was more than 25000 nM in each case. Moreover, the IC50 in data set [2] is more than 25000 nM; in data set [4], 418 nM; in data set [5] it was more than 25000 nM; in data set [6], more than 25000 nM. Moreover, in [2], the “24 hr Dox Inducible IL2FLGluc 293FRT/TO: IL2/PD1” value is more than 60. Also, the “24 hr Dox Inducible TNFaFLGluc 293FRT/TO: TNF/PD1” value in [6] was more than 59.8.

With `CC(C)Oc1ccc(N2CCC[C@@H]2c2csc(NC(=O)c3cccn3Cc3ccnc(F)c3)n2)cc1` [Compound A120, (R)-1-((2-fluoropyridin-4-yl)methyl)-N-(4-(1-(4-isopropoxyphenyl)pyrrolidin-2-yl)thiazol-2-yl)-1H-pyrrole-2-carboxamide], the EC50 in data set [1] is 831 nM; in data set [3] it was more than 25000 nM. Also, the IC50 in [2] was found to be 42.6 nM; in [4], 24.5 nM; in data set [5], 34.5 nM; in data set [6], 158 nM. Further, in [2], the “24 hr Dox Inducible IL2FLGluc 293FRT/TO: IL2/PD1” value is listed as 1.7. Further, the “24 hr Dox Inducible TNFaFLGluc 293FRT/TO: TNF/PD1” value in [6] stood at 6.44.
